Test results reported in article PMC10483525, “Synthesis, Structural Investigations, DNA/BSA Interactions, Molecular Docking Studies, and Anticancer Activity of a New 1,4-Disubstituted 1,2,3-Triazole Derivative” (ACS Omega, 2023).

Key:
Caco-2 cells = assay: Annexin V/PI double-staining apoptosis assay (flow cytometry); type: cell-based, human; details: 48 h
Method: calculated from graph. All assays were performed in three replicates per concentration level. 11
8. Annexin-V/PI Double-Staining Assay
Caco-2 (5x10^5 per well) were seeded in 6-well culture plates in medium and incubated for 24 h at 37°C. Then cells were either untreated or treated with the compound 3 (7.5, 15, 30 μM) for additional 48 h. The cells were harvested and resuspended in 400 μl of 1× binding buffer containing Annexin V-FITC (5 μl) and PI (5 μl), and cells were incubated for 15 min at RT (25°C) in the dark. The results were evaluated immediately through flow cytometry (BD Biosciences, San Jose, CA, USA) within 1 h using Annexin V-FITC staining kit (BD […]

HEK-293 = assay: MTT assay; type: cell-based, human; details: Homo sapiens, HEK293
Method: (§1) Human cancer cell lines (MDA-MB-231, LNCaP, Caco-2) and a human healthy cell line (HEK-293) were obtained from the European Collection of Cell Cultures. The cells were incubated in a humidified incubator (37 °C, 5% CO2) and cultured under standard conditions in Dulbecco’s modified Eagle medium (DMEM), 10% heat-inactivated fetal bovine serum, 100 U mL^–1 penicillin, 100 U mL^–1 streptomycin, and 4 mM L-glutamine. […] A cell culture medium was used to make further dilutions, while keeping the equivalent of DMF below 0.5% of the total volume.[94] […]
(§2) 7. Cell Viability Inhibition Assay
(§3) MDA-MB-231, LNCaP, Caco-2 and HEK-293 cells (5x10^3 per well) seeded in 96-well plates to assess cell viability by the 3-[4,5-dimethylthiazol-2-yl]-2,5-diphenyltetrazolium bromide (MTT) assay for 24 h at 37°C. Then cells were treated with compound 3 at different concentrations (3-100 µM) at 100μl/well. In parallel, the traditional anticancer agent cisplatin and etoposid was used as positive controls under identical conditions. After 24, 48 and 72 h incubation, 5 mg/ml MTT solution (20 μl/well) was added and cultured for another 4 h. Then, the supernatant was discarded and dimethyl sulfoxide was added (100 μl/well). The absorbance (A) was measured spectrophotometrically at 540 nm by a Microplate Reader (SpectraMax i3x).
(§4) A graph was plotted between the concentrations of the extract versus the percent viability. The […]
(§5) calculated from graph. All assays were performed in three replicates per concentration level. 11 […]

LNCaP = assay: MTT assay; type: cell-based, human; details: for IC50: Homo sapiens, LNCaP
Method: as §1, §2, §3, §4, §5

MDA-MB-231 = assay: MTT assay; type: cell-based, human; details: for IC50: Homo sapiens
Method: as §1, §2, §3, §4, §5

EB + CT-DNA adduct = assay: EB displacement (competitive fluorescence emission quenching); type: binding; details: EB 5 μM + CT-DNA 25 μM
Method: The competitive emission quenching experiment was carried out using a well-known intercalating agent and fluorescent probe for DNA, ethidium bromide (EtBr).[83] The compound in varying concentrations (0–150) was added to the [EB (5 μM) + CT-DNA (25 μM)] adduct. The excitation wavelength was fixed to 510 nm, and the emission spectra were recorded (λem = 500–700 nm). The quenching efficiency of the compound was analyzed using the Stern–Volmer and Scatchard equations, and the Stern–Volmer (quenching) constant, Ksv, the bimolecular quenching rate constant, kq, binding constant, Kbin, and the number of binding sites per nucleotide, n, were calculated.[84]
Absorption spectral studies […]
sufficiently free of protein. The DNA concentration per nucleotide was determined by […]
sample solutions to eliminate the absorbance of CT-DNA. […]
mixture was allowed to incubate for 5 minutes before the absorption spectrum was recorded.
The intrinsic binding constant Kb of compound was calculated by using Wolfe-Shimmer […]
Fluorescence spectral studies
The fluorescence quenching experiments were performed for additional support for binding of […]
EB+CT-DNA solution. The fluorescence spectra of 200 μL/well solutions in a 96-well plate
were recorded with 510 nm excitation and the emission spectra of constant [EB+CT-DNA] with
varying the compound concentration were recorded (λ em =500–700). […]

[1] = 48 h, SI = IC50 on normal cells/IC50 on cancer cells

In the case of `O=Cc1ccc(OCc2cn(-c3ccc(Cl)c(Cl)c3)nn2)cc1O` [Compound 3, 4-((1-(3,4-Dichlorophenyl)-1H-1,2,3-triazol-4-yl)methoxy)-2-hydroxybenzaldehyde], the “percentage of apoptosis (early + late)” value (Caco-2 cells; Caco-2, 7.5 μM) is reported as 46.09%, the “percentage of apoptosis (early + late)” value (Caco-2 cells; Caco-2, 15 μM) is reported as 57.77% and the “percentage of apoptosis (early + late)” value (Caco-2 cells; Caco-2, 30 μM) is reported as 70.25%. For the same compound, the IC50 (HEK-293; HEK-293, 24 h) was 43.95 ± 0.2 µM, the IC50 (HEK-293; HEK-293, 48 h) was 24.44 ± 0.13 µM and the IC50 (HEK-293; HEK-293, 72 h) was 17.09 ± 0.08 µM. The SI HEK-293/LNCap (LNCaP; [1]) was 1.43, the IC50 (LNCaP; 24 h) was 44.82 ± 0.09 µM and the IC50 (LNCaP; 48 h) was 17.1 ± 0.26 µM. The IC50 (LNCaP; 72 h) was 10.05 ± 0.03 µM, the “SI, times higher than cisplatin” value (LNCaP; LNCap cells) was 8 times and the SI HEK-293/MDA-MB-231 (MDA-MB-231; [1]) was 2.3. The IC50 (MDA-MB-231; MDA-MB-231, 24 h) was 65.03 ± 0.31 µM, the IC50 (MDA-MB-231; MDA-MB-231, 48 h) was 10.64 ± 0.03 µM and the IC50 (MDA-MB-231; MDA-MB-231, 72 h) was 8.39 ± 0.04 µM. For the same compound, the “Ksv (Stern–Volmer quenching constant)” value (EB + CT-DNA adduct; compound 0–150 μM, λex 510 nm, emission 602 nm) was 4.13 × 10^3 M^–1 and the “Kbin (binding constant)” value (EB + CT-DNA adduct; Scatchard equation) was 3.45 × 10^4 M^–1.
